This note sets out measurements from paper PMC10987128, “A Natural Small Molecule Mitigates Kidney Fibrosis by Targeting Cdc42‐mediated GSK‐3β/β‐catenin Signaling” (Advanced Science, 2024).

In assay [1] the target is T1, Cdc42 (cell division cycle 42) (Homo sapiens, UniProt P60953).
T1 construct: recombinant Cdc42 protein (230-00660-100, RayBio)
Kind of assay: SPR (Biacore 8K, Cdc42 immobilized on CM5 chip), positive control. Format: binding. From the text:
SPR (Biacore 8K, Cdc42 immobilized on CM5 chip), positive control on Cdc42 (cell division cycle 42) | We used ZCL278, a well‐known Cdc42 binding compound, as a positive control in SPR experiments

Assay [2] addresses T1, Cdc42 (cell division cycle 42). Kind of assay: SPR (Biacore 8K, Cdc42 immobilized on CM5 chip); supported by CETSA and TPP in NRK-49F cells. Format: binding. On the technique in general: Surface plasmon resonance follows binding to a sensor surface in real time, without labels.

Structures are written as SMILES. pKd: −log10 of the molar value.

T1 sequence (P60953 1-188): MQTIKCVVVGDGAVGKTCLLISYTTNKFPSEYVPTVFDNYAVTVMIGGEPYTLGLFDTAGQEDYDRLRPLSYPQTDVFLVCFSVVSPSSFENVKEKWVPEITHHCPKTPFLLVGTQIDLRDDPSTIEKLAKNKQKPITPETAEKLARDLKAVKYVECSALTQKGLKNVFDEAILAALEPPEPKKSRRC

In assay [1], `Cc1cc(C)nc(NS(=O)(=O)c2ccc(NC(=S)NC(=O)COc3ccc(Br)cc3Cl)cc2)n1` [ZCL278] had a negative-log Kd (pKd) of 4.73.

As to `C=C(C)[C@]12C[C@@H](C)[C@]34OC5(CCCCCCC[C@H](C)[C@@H]6[C@@H]3[C@@](O)(C(=O)[C@@]6(C)O)[C@H](O)[C@@]3(CO)O[C@H]3[C@H]4[C@H]1O5)O2` [compound 15, daphnepedunin A], the pKd in assay [2] is 4.81.

By pKd is commonly meant the negative decadic logarithm of the Kd, by convention in mol/L. Read a low pKd as a large Kd.
